According to PMC10976043, “Function and Mechanism of Antiviral Wasp Venom Peptide Protopolybia-MP III and Its Derivatives against HSV-1” (Toxins, 2024):
Ends that are not written are not given here.

How the values were obtained:
HSV-1 [1] = test: Plaque formation assay of extracellular HSV-1 particles; assay type: cell-based, herpes simplex virus type 1; settings: supernatant in plaque formation assay
Experimental: (A) Amino acid sequence of Protopolybia-MP III. Basic residues are labeled blue, and acidic residues are labeled red. (B,C) Suppression of intracellular HSV-1 infection by Protopolybia-MP III. Cells were preincubated with Protopolybia-MP III at different concentrations or PBS for 1 h and then infected with HSV-1 at a multiplicity of infection (MOI) of 1. After 24 h, the cells were collected. Intracellular HSV-1 RNA was analyzed by qPCR (B), and intracellular HSV-1 ICP0 protein levels were analyzed by Western blotting (C). (D) Suppression of Protopolybia-MP III on extracellular HSV-1 particles. Cells were treated with Protopolybia-MP III at different concentrations or PBS for 24 h, and then the supernatant was collected and evaluated in a plaque formation assay. (E) Cytotoxicity of Protopolybia-MP III to Vero cells. Cells were treated with Protopolybia-MP III or PBS at different concentrations for 24 h, and then the cytotoxicity was determined by CCK8 assay. * p < 0.05. ** p < 0.01. *** p < 0.001.
(§1) Figure 2 Protopolybia-MP III inhibits HSV-1 replication in human cell lines. (A) Cytotoxicities of Protopolybia-MP III to A549 cells, HCEC, and SK-N-MC. Cells were treated with Protopolybia-MP III at different concentrations or PBS for 24 h, and then cytotoxicities were determined by the CCK8 assay. (B,C) Suppression of intracellular HSV-1 infection by Protopolybia-MP III in A549 cells, HCEC, and SK-N-MC. Cells were preincubated with Protopolybia-MP III at different concentrations or PBS for 1 h and then infected with HSV-1 at an MOI of 1. After 24 h, the cells were collected. Intracellular HSV-1 RNA was analyzed by qPCR (B), and intracellular HSV-1 ICP0 protein expression levels were analyzed by Western blotting (C). (D) Inhibition of Protopolybia-MP III on extracellular HSV-1 particles in A549 cells, HCEC, and SK-N-MC. Cells were treated with Protopolybia-MP III at different concentrations or PBS for 24 h, and then the supernatant was collected and evaluated in a plaque formation assay. * p < 0.05. ** p < 0.01. *** p < 0.001.
Vero cells seeded in a 24-well plate at 100% confluence were infected with virus diluent or supernatant. After 1 h of absorption at 37 °C, the supernatant was removed. Cells were washed three times with PBS and replenished with a plaque-covering layer (MEM with 2% FBS and 1.5% carboxymethylcellulose). After an incubation period of approximately 3 days, the cells were stained with 1% crystal violet containing 10% methanol for 0.5 h. Then, the plaques were counted, and the viral titer was calculated according to the plaque number and dilution.

[2] = tested on: human corneal epithelial cells (HCEC); test: CCK8 cytotoxicity assay, HCEC; assay type: cell-based; settings: 40 μg/mL, 24 h
Experimental: as §1
Cells were seeded in a 96-well plate (7000–10,000 cells per well) and cultured at 37 °C overnight. Peptides in a series of concentrations were added to the medium, and cells were then incubated at 37 °C for 24 h. […] Finally, the absorbance was measured at 450 nm using a microplate reader (BioTek, Winooski, VT, USA).

HSV-1 [3] = test: HSV-1 life cycle stage assay (different modes of peptide treatment), qPCR; assay type: cell-based, herpes simplex virus type 1
Experimental: To determine the exact step at which Protopolybia-MP III blocks HSV-1 infection, we conducted an experiment with different modes of peptide treatment in Vero cells (Figure 3A). […] Then, we detected the protective effect of Protopolybia-MP III by pretreating Vero cells with 20 μg/mL Protopolybia-MP III before HSV-1 infection.
Figure 3 Protopolybia-MP III inhibits multiple phases of the HSV-1 life cycle. (A) Schematic diagram for studying stage at which Protopolybia-MP III acts on the HSV-1 life cycle. (B) Effects of Protopolybia-MP III on the attachment, entry/fusion, and post-entry stages of the HSV-1 life cycle. Vero cells were infected with HSV-1 at an MOI of 1 and treated with 20 μg/mL Protopolybia-MP III as described in (A). After 24 h, cells were collected, and intracellular HSV-1 RNA was analyzed by qPCR. (C) The effect of Protopolybia-MP III on cell protection against HSV-1 infection. Vero cells were treated with 20 μg/mL Protopolybia-MP III or PBS and infected with HSV-1 at an MOI of 1 as described in (A). After 24 h, the cells were collected, and intracellular HSV-1 RNA was analyzed by qPCR. ns, no significance. ** p < 0.01. *** p < 0.001.
Cells were collected and lysed using TRIzol reagent (Beyotime Biotechnology, Shanghai, China) to release the intracellular total RNA, followed by precipitation with isopropanol. The first-strand cDNA was reverse-transcribed by the HiScript III 1st Strand cDNA Synthesis Kit (+gDNA wiper) (Vazyme, Nanjing, China). The cDNA was quantitated by qPCR with primers using Taq Pro Universal SYBR qPCR Master Mix (Vazyme). The HSV-1 primers were 5′-[…]-3′ (sense) and 5′-[…]-3′ (antisense). The monkey GAPDH primers were 5′-[…]-3′ (sense) and 5′-[…]-3′ (antisense). The human GAPDH primers were 5′-[…]-3′ (sense) and 5′-[…]-3′ (antisense). qPCR experiments were performed on a Bio-Rad CFX96 Touch (Pleasanton, CA, USA) according to the manufacturer’s instructions.

[4] = Vero cells, 20 μg/mL, HSV-1 MOI 1, 24 h, qPCR of HSV-1 RNA

Substance: INWLKLGKAVIDAL-NH2 [Protopolybia-MP III]
- extracellular HSV-1 level versus PBS (HSV-1 [1]; A549 cells treated 24 h): lower
- extracellular HSV-1 level versus PBS (HSV-1 [1]; HCEC treated 24 h): lower
- extracellular HSV-1 level versus PBS (HSV-1 [1]; SK-N-MC treated 24 h): lower
- extracellular HSV-1 particles (plaques) (HSV-1 [1]; Vero cells treated 24 h): fewer plaques
- cytotoxicity to HCEC [2]: almost nontoxic
- protection of cells from HSV-1 infection (pretreatment) (HSV-1 [3]; Vero cells pretreated with 20 μg/mL before HSV-1 infection, MOI 1, 24 h, qPCR): almost no effect
- inhibitory rate, attachment stage of the HSV-1 life cycle (HSV-1 [3]; [4]): 57%
- inhibitory rate, entry/fusion stage of the HSV-1 life cycle (HSV-1 [3]; [4]): 84%
- inhibitory rate, post-entry stage of the HSV-1 life cycle (HSV-1 [3]; [4]): 66%
